Results on three molecules are retold here after publication PMC4457528, “Identification of Novel Small Molecule Inhibitors of Oncogenic RET Kinase” (PLoS ONE, 2015).

Like-named read-outs stand apart in the source and are kept apart here.

Holding throughout (assay): KinomeScan kinase panel, single concentration 10 µM
Assay type in all cases: binding

Test [1] deals with T1, KinomeScan kinase panel (Homo sapiens, UniProt P31751).
T1 construct: purchased DiscoveRx (KinomeScan)
The following applies: AKT2, 10 µM; read-out: score (%).

The target in test [2] is T2, KinomeScan kinase panel (Homo sapiens, UniProt P30530).
T2 construct: purchased DiscoveRx (KinomeScan)
T2 sequence (P30530 26-894): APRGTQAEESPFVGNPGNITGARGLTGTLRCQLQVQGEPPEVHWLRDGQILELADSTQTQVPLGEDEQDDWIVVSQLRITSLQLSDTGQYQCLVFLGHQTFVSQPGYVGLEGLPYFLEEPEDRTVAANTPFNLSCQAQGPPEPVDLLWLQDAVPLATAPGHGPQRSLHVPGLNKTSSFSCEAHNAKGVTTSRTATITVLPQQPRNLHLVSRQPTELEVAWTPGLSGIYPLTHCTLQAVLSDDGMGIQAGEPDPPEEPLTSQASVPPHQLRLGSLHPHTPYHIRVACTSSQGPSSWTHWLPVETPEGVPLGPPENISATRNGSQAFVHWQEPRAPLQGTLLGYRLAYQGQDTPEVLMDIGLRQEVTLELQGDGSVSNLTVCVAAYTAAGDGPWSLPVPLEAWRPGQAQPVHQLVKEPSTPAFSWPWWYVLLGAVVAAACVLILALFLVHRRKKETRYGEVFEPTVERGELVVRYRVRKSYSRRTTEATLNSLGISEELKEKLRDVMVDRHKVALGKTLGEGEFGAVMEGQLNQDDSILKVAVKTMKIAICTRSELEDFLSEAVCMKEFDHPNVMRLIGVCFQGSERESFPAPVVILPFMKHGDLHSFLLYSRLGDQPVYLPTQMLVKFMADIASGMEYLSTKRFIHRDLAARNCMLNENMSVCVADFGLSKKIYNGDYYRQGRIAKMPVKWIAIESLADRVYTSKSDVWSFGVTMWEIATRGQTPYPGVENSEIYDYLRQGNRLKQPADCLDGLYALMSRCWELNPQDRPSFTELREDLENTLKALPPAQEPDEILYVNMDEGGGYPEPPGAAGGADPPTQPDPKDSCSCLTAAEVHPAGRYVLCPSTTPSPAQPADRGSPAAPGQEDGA
Particulars: AXL, 10 µM; read-out: score (%).

Test [3] deals with T3, KinomeScan kinase panel (Homo sapiens, UniProt Q02779).
T3 construct: purchased DiscoveRx (KinomeScan)
The following applies: MLK2, 10 µM; read-out: score (%).

The target in test [4] is T4, KinomeScan kinase panel (Homo sapiens, UniProt P49841).
T4 construct: purchased DiscoveRx (KinomeScan)
Particulars: GSK3B, 10 µM; read-out: score (%).

Test [5] deals with T5, KinomeScan kinase panel (Homo sapiens, UniProt P35968).
T5 construct: purchased DiscoveRx (KinomeScan)
The following applies: kinase VEGFR2; 10 µM; read-out: score (%).

For test [6], the target named is T6, KinomeScan kinase panel (Homo sapiens, UniProt O94921).
T6 construct: purchased DiscoveRx (KinomeScan)
The following applies: PFTK1, 10 µM.

The target in test [7] is T7, KinomeScan kinase panel (Homo sapiens, UniProt Q04912).
T7 construct: purchased DiscoveRx (KinomeScan)
The following applies: MST1R, 10 µM; read-out: score (%).

Test [8] deals with T8, KinomeScan kinase panel (Homo sapiens, UniProt Q9BZL6).
T8 construct: purchased DiscoveRx (KinomeScan)
T8 sequence (Q9BZL6 1-878): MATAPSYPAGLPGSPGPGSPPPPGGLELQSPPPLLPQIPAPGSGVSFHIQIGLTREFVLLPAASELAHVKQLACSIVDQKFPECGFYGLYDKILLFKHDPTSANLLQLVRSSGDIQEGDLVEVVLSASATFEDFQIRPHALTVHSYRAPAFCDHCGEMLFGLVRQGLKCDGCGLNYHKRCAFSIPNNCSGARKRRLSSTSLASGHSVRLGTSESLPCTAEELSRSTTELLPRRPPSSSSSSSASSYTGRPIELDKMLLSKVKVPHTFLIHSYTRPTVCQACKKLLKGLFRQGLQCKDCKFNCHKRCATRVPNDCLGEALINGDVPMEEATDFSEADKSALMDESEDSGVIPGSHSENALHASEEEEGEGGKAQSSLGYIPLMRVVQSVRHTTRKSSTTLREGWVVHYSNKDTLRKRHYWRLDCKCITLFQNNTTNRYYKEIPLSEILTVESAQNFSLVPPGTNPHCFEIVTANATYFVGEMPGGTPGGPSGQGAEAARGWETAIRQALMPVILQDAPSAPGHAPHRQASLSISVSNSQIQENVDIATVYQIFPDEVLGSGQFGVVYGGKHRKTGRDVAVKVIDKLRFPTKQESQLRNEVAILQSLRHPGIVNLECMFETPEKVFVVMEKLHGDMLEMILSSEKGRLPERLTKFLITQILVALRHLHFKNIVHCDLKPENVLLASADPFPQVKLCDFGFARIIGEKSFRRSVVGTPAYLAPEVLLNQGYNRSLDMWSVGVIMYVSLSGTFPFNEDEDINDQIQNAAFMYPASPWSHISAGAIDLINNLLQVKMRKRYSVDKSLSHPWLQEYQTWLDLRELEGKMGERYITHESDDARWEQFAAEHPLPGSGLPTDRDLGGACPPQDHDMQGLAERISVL
Particulars: read-out: score (%).

Test [9] concerns the target T9, KinomeScan kinase panel (Homo sapiens, UniProt Q9BRS2).
T9 construct: purchased DiscoveRx (KinomeScan)
T9 sequence (Q9BRS2 1-568): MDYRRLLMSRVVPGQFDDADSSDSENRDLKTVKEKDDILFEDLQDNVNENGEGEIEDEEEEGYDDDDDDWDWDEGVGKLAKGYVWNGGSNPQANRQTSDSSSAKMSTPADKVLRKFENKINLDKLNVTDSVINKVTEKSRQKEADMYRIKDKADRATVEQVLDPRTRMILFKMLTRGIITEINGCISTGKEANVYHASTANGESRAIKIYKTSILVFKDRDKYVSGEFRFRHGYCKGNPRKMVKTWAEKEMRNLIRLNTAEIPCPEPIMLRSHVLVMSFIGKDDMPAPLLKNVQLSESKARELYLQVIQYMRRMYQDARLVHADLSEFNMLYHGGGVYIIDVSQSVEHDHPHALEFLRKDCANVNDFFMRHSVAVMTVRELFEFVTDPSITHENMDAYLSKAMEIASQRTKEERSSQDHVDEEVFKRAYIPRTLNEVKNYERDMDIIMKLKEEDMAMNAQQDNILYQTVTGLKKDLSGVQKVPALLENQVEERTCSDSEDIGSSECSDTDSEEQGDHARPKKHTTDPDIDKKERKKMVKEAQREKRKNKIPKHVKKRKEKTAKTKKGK
The following applies: read-out: score (%).

T1 sequence (P31751 whole entry): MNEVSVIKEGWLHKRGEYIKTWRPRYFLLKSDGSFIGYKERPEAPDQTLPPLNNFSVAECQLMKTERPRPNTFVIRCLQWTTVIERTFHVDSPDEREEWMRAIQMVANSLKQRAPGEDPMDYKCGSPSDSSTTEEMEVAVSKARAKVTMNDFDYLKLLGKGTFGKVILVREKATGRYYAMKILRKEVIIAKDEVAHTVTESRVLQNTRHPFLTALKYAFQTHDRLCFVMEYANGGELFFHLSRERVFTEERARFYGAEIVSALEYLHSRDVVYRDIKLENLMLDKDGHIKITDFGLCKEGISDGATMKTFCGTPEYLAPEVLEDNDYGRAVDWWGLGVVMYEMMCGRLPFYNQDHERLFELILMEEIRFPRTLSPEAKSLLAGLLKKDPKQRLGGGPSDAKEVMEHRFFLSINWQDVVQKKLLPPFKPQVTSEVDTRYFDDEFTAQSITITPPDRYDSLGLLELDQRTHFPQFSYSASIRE
T3 sequence (Q02779 whole entry): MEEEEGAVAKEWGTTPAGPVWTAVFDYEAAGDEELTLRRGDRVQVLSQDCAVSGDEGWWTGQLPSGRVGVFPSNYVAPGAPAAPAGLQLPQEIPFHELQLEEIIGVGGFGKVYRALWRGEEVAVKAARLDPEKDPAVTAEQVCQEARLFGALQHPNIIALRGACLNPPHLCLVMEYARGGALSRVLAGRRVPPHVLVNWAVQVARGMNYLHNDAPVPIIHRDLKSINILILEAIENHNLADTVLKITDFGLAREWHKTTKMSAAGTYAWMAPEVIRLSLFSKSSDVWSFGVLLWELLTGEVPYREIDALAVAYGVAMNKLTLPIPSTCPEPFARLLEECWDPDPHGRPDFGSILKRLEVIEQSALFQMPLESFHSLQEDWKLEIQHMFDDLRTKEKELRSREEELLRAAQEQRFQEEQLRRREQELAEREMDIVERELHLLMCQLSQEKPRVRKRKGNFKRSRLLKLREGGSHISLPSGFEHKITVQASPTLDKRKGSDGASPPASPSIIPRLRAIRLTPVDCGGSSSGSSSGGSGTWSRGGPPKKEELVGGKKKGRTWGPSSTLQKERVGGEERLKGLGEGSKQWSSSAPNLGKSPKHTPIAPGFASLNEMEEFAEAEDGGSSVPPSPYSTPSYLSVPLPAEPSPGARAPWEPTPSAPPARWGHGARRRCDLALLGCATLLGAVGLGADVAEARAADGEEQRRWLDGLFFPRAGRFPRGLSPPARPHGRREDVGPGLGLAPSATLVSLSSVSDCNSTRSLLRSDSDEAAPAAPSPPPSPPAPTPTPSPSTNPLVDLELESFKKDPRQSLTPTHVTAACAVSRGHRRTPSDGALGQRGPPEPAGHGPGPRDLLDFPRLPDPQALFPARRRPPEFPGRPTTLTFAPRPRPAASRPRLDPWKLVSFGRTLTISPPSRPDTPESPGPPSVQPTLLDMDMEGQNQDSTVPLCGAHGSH
T7 sequence (Q04912 25-1400): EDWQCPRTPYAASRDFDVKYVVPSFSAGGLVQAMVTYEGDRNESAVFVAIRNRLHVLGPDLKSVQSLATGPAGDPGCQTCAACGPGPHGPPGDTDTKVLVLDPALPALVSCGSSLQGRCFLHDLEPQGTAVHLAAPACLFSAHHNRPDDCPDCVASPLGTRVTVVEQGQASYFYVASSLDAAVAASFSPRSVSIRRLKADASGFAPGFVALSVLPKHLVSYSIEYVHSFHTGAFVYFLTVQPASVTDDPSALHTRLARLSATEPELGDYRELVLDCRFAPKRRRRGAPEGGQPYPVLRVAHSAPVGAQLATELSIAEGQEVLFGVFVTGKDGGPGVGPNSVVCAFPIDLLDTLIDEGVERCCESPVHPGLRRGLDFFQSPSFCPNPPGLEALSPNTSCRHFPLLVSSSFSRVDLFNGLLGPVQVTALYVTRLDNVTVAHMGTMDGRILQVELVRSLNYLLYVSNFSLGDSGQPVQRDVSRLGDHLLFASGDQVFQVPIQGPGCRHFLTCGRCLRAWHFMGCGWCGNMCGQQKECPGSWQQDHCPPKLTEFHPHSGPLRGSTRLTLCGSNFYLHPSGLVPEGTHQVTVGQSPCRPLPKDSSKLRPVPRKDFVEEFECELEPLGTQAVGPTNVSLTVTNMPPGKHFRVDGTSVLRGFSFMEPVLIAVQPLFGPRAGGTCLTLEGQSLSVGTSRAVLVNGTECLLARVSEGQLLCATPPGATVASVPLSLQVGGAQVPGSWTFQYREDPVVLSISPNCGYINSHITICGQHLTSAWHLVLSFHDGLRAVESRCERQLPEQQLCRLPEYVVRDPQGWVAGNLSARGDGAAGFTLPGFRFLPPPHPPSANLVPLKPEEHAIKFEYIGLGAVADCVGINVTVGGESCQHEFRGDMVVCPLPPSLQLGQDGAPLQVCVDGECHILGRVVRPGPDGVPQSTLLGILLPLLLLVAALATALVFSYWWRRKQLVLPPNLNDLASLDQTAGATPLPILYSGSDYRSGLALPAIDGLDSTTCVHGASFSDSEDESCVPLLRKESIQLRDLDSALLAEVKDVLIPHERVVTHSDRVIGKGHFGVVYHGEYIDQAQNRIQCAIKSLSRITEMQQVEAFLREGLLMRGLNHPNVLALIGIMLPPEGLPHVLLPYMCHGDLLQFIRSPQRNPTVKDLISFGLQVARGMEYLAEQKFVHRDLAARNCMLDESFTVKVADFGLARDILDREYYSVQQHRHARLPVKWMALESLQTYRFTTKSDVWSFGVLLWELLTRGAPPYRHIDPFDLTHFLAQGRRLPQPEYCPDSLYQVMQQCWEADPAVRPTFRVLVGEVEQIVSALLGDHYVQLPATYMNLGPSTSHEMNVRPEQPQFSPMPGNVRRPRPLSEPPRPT
T4 sequence (P49841 whole entry): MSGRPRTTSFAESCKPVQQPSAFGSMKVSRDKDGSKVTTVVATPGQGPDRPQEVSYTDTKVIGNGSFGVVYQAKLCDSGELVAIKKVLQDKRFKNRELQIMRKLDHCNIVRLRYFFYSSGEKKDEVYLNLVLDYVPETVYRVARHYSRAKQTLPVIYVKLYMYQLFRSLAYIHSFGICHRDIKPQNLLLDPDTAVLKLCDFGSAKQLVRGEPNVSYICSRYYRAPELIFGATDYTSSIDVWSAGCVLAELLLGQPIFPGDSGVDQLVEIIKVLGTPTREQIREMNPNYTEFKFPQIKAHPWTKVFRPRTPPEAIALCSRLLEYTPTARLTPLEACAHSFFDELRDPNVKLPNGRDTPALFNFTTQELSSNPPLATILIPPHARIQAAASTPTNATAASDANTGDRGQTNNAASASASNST
T6 sequence (O94921 whole entry): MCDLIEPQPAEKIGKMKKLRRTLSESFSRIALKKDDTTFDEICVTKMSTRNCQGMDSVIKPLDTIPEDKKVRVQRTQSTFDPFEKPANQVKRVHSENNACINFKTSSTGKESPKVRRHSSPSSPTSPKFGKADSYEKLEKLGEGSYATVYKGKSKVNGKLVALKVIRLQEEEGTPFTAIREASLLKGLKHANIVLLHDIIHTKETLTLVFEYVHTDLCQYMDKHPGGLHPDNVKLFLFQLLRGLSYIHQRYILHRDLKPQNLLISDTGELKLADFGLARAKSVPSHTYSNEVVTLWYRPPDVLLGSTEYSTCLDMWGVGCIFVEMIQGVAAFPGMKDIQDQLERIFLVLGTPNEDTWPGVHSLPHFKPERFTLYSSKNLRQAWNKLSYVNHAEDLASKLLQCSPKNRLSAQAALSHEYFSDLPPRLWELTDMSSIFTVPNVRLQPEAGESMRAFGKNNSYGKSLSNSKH
T5 sequence (P35968 20-1356): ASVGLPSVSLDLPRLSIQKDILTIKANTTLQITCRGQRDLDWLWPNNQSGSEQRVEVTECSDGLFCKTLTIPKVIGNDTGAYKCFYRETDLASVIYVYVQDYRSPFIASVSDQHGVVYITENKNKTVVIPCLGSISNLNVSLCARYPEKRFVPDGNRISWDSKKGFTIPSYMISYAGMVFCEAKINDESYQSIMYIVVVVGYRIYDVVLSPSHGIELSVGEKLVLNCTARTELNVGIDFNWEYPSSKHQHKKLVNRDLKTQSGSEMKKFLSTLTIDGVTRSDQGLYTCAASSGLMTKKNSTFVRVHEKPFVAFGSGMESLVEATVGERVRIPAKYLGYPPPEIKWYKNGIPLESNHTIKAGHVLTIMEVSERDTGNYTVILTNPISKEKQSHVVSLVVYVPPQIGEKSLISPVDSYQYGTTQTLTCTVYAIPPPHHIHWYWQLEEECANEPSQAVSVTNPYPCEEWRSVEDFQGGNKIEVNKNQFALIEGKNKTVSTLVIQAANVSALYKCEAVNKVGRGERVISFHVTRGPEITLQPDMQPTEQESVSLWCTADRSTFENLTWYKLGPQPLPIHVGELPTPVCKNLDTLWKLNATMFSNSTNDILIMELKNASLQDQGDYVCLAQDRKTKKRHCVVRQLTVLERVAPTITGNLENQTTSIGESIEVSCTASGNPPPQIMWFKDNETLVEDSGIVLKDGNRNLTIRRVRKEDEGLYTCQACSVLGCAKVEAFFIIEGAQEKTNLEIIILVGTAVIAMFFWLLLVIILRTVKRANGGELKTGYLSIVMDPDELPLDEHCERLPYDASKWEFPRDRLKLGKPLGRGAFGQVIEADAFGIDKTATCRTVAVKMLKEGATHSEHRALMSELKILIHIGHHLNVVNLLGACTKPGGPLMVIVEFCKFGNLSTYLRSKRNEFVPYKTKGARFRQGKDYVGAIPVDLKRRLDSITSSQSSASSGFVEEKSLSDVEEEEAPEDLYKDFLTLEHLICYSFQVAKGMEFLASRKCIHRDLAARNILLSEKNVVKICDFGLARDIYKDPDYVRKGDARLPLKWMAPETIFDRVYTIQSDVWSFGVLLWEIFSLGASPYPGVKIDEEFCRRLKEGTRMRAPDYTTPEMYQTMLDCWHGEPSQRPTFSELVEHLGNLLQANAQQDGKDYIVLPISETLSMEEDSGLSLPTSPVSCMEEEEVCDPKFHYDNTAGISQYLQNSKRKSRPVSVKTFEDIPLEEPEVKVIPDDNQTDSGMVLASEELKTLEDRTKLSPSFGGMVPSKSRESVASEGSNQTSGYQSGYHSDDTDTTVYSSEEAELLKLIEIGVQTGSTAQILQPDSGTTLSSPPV

With `CCN1CCN(Cc2ccc(NC(=O)c3ccc(C)c(NC(=O)c4cncc(-c5cccs5)c4)c3)cc2C(F)(F)F)CC1` [ALW-II-41-27], the remaining binding at 10 µM is greater than 30% at KinomeScan kinase panel [1]; greater than 30% on KinomeScan kinase panel [2]; greater than 30% on KinomeScan kinase panel [3]; greater than 30% at KinomeScan kinase panel [4]; 1.8% on KinomeScan kinase panel [5]; greater than 30% at KinomeScan kinase panel [7]. In addition, the remaining binding at 10 µM was greater than 30% at KinomeScan kinase panel [8] (PRKD2, 10 µM) and greater than 30% on KinomeScan kinase panel [9] (RIOK1, 10 µM). Further, the “score (%)” value at KinomeScan kinase panel [6] is “nb (Hits values higher than 30% were considered negative (no binding: nb))”.

Take `CCN1CCN(Cc2ccc(NC(=O)c3ccc(C)c(/C=C/c4cnc5[nH]ccc5c4Cl)c3)cc2C(F)(F)F)CC1` [HG-6-63-01, (E)-3-(2-(4-chloro-1H-pyrrolo[2,3-b]pyridin-5-yl)vinyl)-N-(4-((4-ethylpiperazin-1-yl)methyl)-3-(trifluoromethyl)phenyl)-4-methylbenzamide]: the remaining binding at 10 µM at KinomeScan kinase panel [1] was greater than 30%; on KinomeScan kinase panel [2], 17%; at KinomeScan kinase panel [3], 20%; at KinomeScan kinase panel [4], greater than 30%; on KinomeScan kinase panel [5] it was 0.35%; at KinomeScan kinase panel [7], greater than 30%. The remaining binding at 10 µM at KinomeScan kinase panel [8] (PRKD2, 10 µM) worked out at 32%; on KinomeScan kinase panel [9] (RIOK1, 10 µM) it was 0.2%. Moreover, at KinomeScan kinase panel [6], the “score (%)” value is listed as “nb (Hits values higher than 30% were considered negative (no binding: nb))”.

As to `CCN1CCN(Cc2ccc(NC(=O)c3ccc(C)c(C#Cc4cccnc4)c3)cc2C(F)(F)F)CC1` [XMD15-44], the remaining binding at 10 µM is 30% on KinomeScan kinase panel [1]; 2.9% at KinomeScan kinase panel [2]; greater than 30% on KinomeScan kinase panel [3]; greater than 30% on KinomeScan kinase panel [4]; 0.25% on KinomeScan kinase panel [5]; greater than 30% on KinomeScan kinase panel [7]. In addition, the remaining binding at 10 µM amounted to 56% at KinomeScan kinase panel [8] (kinase PRKD2, 10 µM) and 90% on KinomeScan kinase panel [9] (kinase RIOK1, 10 µM). The “score (%)” value on KinomeScan kinase panel [6] was found to be 0.85%.
